Test [1] deals with eicosanoid production in the rat air pouch. Description: Carrageenan-induced eicosanoid production in the rat air pouch. The format is in vivo. Particulars: po, male Lewis rats, 3 mpk by gavage 1 hour prior to carrageenan. The protocol: Carrageenan-Induced Eicosanoid Production in the Rat Air Pouch:
Male Lewis rats (175-200 g), Charles River Laboratories, Wilmington, Mass.) were used in the study. Air pouches were produced by subcutaneous injection of 20 ml of sterile air into the intrascapular area of the back. Pouches were allowed to develop for 1 day. Animals (6 per group) were fasted with free access to water for 16 to 24 hours prior to drug administration. Drugs or vehicle were administered by gavage 1 hour prior to injection of 2 ml of a 1% suspension of carrageenan (FMC BioPolymer, Philadelphia, Pa., Cat. # GP209-NF) dissolved in saline into the pouch. At 3 hours post-carrageenan injection, 1 ml of 50 μg/ml calcium ionophore in saline (A23187, Sigma Chemical Co, St. Louis, M, Cat. #C-7522) was injected into the pouch and the pouch fluid collected 10 minutes later by lavage. The fluid was centrifuged at 3500 rpm for 10 minutes at 4° C., and the supernatants were collected for analysis. Leukotriene and prostaglandin levels were quantitated by ELISA according to the manufacturer's directions (Cayman Chemical Company, Ann Arbor, Mi).

Test [2] concerns the target T1, recombinant human 5-LOX (Homo sapiens, UniProt P09917).
T1 sequence (P09917 1-674): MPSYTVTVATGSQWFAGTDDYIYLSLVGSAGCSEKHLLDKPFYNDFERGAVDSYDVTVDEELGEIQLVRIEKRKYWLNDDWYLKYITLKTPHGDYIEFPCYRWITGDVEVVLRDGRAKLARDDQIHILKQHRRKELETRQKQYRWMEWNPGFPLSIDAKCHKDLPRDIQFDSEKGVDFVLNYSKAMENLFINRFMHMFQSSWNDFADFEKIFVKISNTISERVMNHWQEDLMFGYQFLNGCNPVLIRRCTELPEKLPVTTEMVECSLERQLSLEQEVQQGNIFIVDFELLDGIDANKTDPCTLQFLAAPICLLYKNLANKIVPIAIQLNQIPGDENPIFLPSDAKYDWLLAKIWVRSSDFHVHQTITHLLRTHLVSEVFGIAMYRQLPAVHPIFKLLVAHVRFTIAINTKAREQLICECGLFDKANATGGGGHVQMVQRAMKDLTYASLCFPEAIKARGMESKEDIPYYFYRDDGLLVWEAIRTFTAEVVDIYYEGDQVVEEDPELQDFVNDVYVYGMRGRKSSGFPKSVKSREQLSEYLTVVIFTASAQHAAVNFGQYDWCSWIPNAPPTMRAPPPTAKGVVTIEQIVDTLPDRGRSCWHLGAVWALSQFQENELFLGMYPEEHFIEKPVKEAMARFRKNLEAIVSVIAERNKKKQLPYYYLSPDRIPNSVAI
Description: Fluorescence Intensity 5-LOX Enzyme Assay. The format is biochemical. Particulars: crude lysate of recombinant human 5-LOX; highest inhibitor concentration tested typically 25 μM. An outline of the steps:
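Crude lysate enzyme with H2DCFDA 10 μM (5 min dye pre-incubation), inhibitor pre-incubated 10 min; reaction started with 3 μM arachidonic acid plus 10 μM ATP in Tris pH 7.5, CaCl2, EDTA, 20 min at room temperature, acetonitrile stop. Fluorescein fluorescence; 7-point 4-parameter IC50, top 25 μM, 2.5% DMSO.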

Test [3] concerns human whole blood (leukotriene and prostaglandin levels). Description: Eicosanoid production from human whole blood. It counts as cell-based. The settings on record: human whole blood stimulated with calcium ionophore A23187 and arachidonic acid; ELISA. The essentials:
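Pooled heparinized whole blood from healthy or asthmatic donors was preincubated with compound for 10 min at room temperature, with 2.5% DMSO final. It was stimulated with calcium ionophore A23187 plus arachidonic acid (30 μM) in 60% ethanol for 15 min at 37 °C. Plasma leukotrienes and prostaglandins were measured by ELISA.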
Background: An ELISA detects its analyte on a solid surface through an enzyme-linked reagent.

For 20 compounds, inhibition and IC50 results are on record in patent US8097733B2, “Pyrazole derivatives as 5-LO-inhibitors” (Pfizer Inc., priority 2007, dated 2012).

Where only a bound is given, the exact number is not on record here.

Regarding `C[C@H]1C[C@@](C#N)(c2cc(F)cc(Sc3ccc(-c4ccnn4C)cc3)c2)CCO1` [27(2), (2S,4R)-4-(3-fluoro-5-(4-(1-methyl-1H-pyrazol-5-yl)phenylthio)phenyl)-2-methyl-tetrahydro-2H-pyran-4-carbonitrile], the inhibition – broadly, the change of the read-out against control, counted positive when it falls – at 3 mg/kg in test [1] was 100%. Further, the IC50 (usually the point on the concentration scale where inhibition reaches its midpoint) was found to be 331 nM in test [2] and 123 nM in test [3].
`C[C@H]1C[C@@](C#N)(c2cccc(Sc3ccc(-c4ccnn4C)cc3)c2F)CCO1` [29(2), (2S,4R)-4-(2-fluoro-3-(4-(1-methyl-1H-pyrazol-5-yl)phenylthio)phenyl)-2-methyl-tetrahydro-2H-Pyran-4-carbonitrile] showed an inhibition at 3 mg/kg in test [1] of 100%. Further, the IC50 amounted to 30 nM in test [2] and 62.5 nM in test [3].
In the same order, the values of `C[C@H]1C[C@@](C#N)(c2cccc(Sc3ccc(-c4ccnn4C)c(F)c3)c2)CCO1` [30(2), (2S,4R)-4-(3-(3-fluoro-4-(1-methyl-1H-pyrazol-5-yl)phenylthio)phenyl)-2-methyl-tetrahydro-2H-pyran-4-carbonitrile] are 95%, 113 nM and 55.7 nM.
`C[C@H]1C[C@@](C#N)(c2cccc(Sc3ccc(-c4ccnn4C)c(F)c3)c2F)CCO1` [31(1), (2S,4R)-4-(2-fluoro-3-(3-fluoro-4-(1-methyl-1H-pyrazol-5-yl)phenylthio)phenyl)-2-methyl-tetrahydro-2H-pyran-4-carbonitrile] yielded an inhibition at 3 mg/kg in test [1] of 96%. The IC50 in test [2] amounted to 21.5 nM; in test [3], 59.8 nM.
In the same order, the values of `C[C@H]1C[C@@](C#N)(c2cc(F)cc(Sc3ccc(-c4ccnn4C)c(F)c3)c2)CCO1` [32(1), (2S,4R)-4-(3-fluoro-5-(3-fluoro-4-(1-methyl-1H-pyrazol-5-yl)phenylthio)phenyl)-2-methyl-tetrahydro-2H-pyran-4-carbonitrile] are 93%, 151 nM and 107 nM.
The compound `C[C@H]1C[C@@](C#N)(c2cccc(Sc3cnc(Oc4ccnn4C)c(Cl)c3)c2F)CCO1` [52(4), (2S,4R)-4-(3-(5-chloro-6-(1-methyl-1H-pyrazol-5-yloxy)pyridin-3-ylthio)-2-fluorophenyl)-2-methyl-tetrahydro-2H-pyran-4-carbonitrile] registered an inhibition at 3 mg/kg in test [1] of 97%. For the same compound, the IC50 turned out to be 29.1 nM in test [2] and 118 nM in test [3].
In the same order, the values of `Cc1nccn1-c1ccc(Sc2cccc(C3(C(N)=O)CCOCC3)c2)cc1` [(d), 4-(3-(4-(2-methyl-1H-imidazol-1-yl)phenylthio)phenyl)-tetrahydro-2H-pyran-4-carboxamide, reference compound] are 73.1%, 877 nM and 275 nM.
On to `Cn1nccc1-c1ccc(Sc2cccc(C3(C(N)=O)CCOCC3)c2)cc1Cl` [Example 1, 4-(3-{[3-chloro-4-(1-methyl-1H-pyrazol-5-yl)phenyl]thio}phenyl)tetrahydro-2H-pyran-4-carboxamide], for which the inhibition at 3 mg/kg in test [1] came to 50.5%. Moreover, the figures for the IC50 in test [2] and in test [3] were 89.7 nM and 76.5 nM, respectively.
Take `Cn1nccc1-c1ccc(Sc2cccc(C3(C(N)=O)CCOCC3)c2)cc1C#N` [Example 2, 4-(3-{[3-Cyano-4-(1-methyl-1H-pyrazol-5-yl)phenyl]thio}phenyl)tetrahydro-2H-pyran-4-carboxamide]: the inhibition at 3 mg/kg in test [1] was 0%. The IC50 in test [2] was found to be 660 nM; in test [3], 196 nM.
Compound `CNC(=O)C1(c2cccc(Sc3ccc(-c4ccnn4C)cc3)c2)CCOCC1` [Example 10, N-Methyl-4-(3-{[4-(1-methyl-1H-pyrazol-5-yl)phenyl]thio}phenyl)tetrahydro-2H-pyran-4-carboxamide] gave an inhibition at 3 mg/kg in test [1] of 5%. Moreover, the IC50 was found to be 287 nM in test [2] and 294 nM in test [3].
In turn, `Cn1nccc1-c1ncc(Sc2cccc(C3(C(N)=O)CCOCC3)c2)cc1Cl` [Example 11, 4-(3-{[5-chloro-6-(1-methyl-1H-pyrazol-5-yl)pyridin-3-yl]thio}phenyl)tetrahydro-2H-pyran-4-carboxamide] came in with an inhibition at 3 mg/kg in test [1] of 69%. Moreover, the IC50 turned out to be 386 nM in test [2] and 260 nM in test [3].
`Cn1nccc1-c1ccc(Sc2cccc(C3(C(N)=O)CCOCC3)c2)c(Cl)c1` [Example 13, 4-(3-{[2-chloro-4-(1-methyl-1H-pyrazol-5-yl)phenyl]thio}phenyl)tetrahydro-2H-pyran-4-carboxamide] came in with an inhibition at 3 mg/kg in test [1] of 1%. Besides, the IC50 in test [2] was found to be 54 nM; in test [3] it was 119 nM.
Take `Cn1nccc1-c1ccc(Sc2cc(F)cc(C3(C(N)=O)CCOCC3)c2)cc1` [Example 15, 4-(3-fluoro-5-{[4-(1-methyl-1H-pyrazol-5-yl)phenyl]thio}phenyl)tetrahydro-2H-pyran-4-carboxamide]: the inhibition at 3 mg/kg in test [1] is 68.5%. For the same compound, the figures for the IC50 in test [2] and in test [3] were 264 nM and 365 nM, respectively.
On to `CNC(=O)C1(c2cccc(Sc3ccc(-c4ccnn4C)cc3Cl)c2)CCOCC1` [Example 16, 4-(3-{[2-chloro-4-(1-methyl-1H-pyrazol-6-yl)phenyl]thio}phenyl)-N-methyltetrahydro-2H-pyran-4-carboxamide], for which, in test [1], 3 mg/kg produced 0% inhibition. Further, the IC50 is 67.9 nM in test [2] and 331 nM in test [3].
In test [1], `CNC(=O)C1(c2cccc(Sc3ccc(-c4ccnn4C)cc3)c2F)CCOCC1` [Example 17, 4-(2-fluoro-3-{[4-(1-methyl-1H-pyrazol-5-yl)phenyl]thio}phenyl)-N-methyl-tetrahydro-2H-pyran-4-carboxamide] yielded an inhibition at 3 mg/kg of 83%. Besides, the results for the IC50 in test [2] and in test [3] were 146 nM and 962 nM, respectively.
`CNC(=O)C1(c2cc(F)cc(Sc3ccc(-c4ccnn4C)cc3)c2F)CCOCC1` [Example 19, 4-(2,5-difluoro-3-{[4-(1-methyl-1H-pyrazol-5-yl)phenyl]thio}phenyl)-N-methyltetrahydro-2H-pyran-4-carboxamide] gave an inhibition at 3 mg/kg in test [1] of 95.3%. Besides, the IC50 stood at 114 nM in test [2] and 996 nM in test [3].
In test [1], `Cn1nccc1-c1ccc(Sc2c(F)ccc(C3(C(N)=O)CCOCC3)c2F)cc1` [Example 20, 4-(2,4-difluoro-3-{[4-(1-methyl-1H-pyrazol-5-yl)phenyl]thio}phenyl)-tetrahydro-2H-pyran-4-carboxamide] registered an inhibition at 3 mg/kg of 91%. Besides, the IC50 in test [2] was 225 nM; in test [3], 448 nM.
`Cn1nccc1-c1ccc(Sc2cc(C3(C(N)=O)CCOCC3)ccc2F)cc1` [Example 21, 4-(4-fluoro-3-(4-(1-methyl-1H-pyrazol-5-yl)phenylthio)phenyl)-tetrahydro-2H-pyran-4-carboxamide] displayed an inhibition at 3 mg/kg in test [1] of 96%. The IC50 in test [2] is 567 nM; in test [3], 859 nM.
In the same order, the values of `C[C@H]1C[C@@](C(N)=O)(c2cccc(Sc3ccc(-c4ccnn4C)cc3)c2)CCO1` [Example 22, (2S,4R)-2-methyl-4-(3-(4-(1-methyl-1H-pyrazol-5-yl)phenylthio)phenyl)-tetrahydro-2H-pyran-4-carboxamide] are 99.5%, 16.4 nM and 185 nM.
For the compound `Cn1nccc1-c1ccc([S+]([O-])c2cccc(C3(C(N)=O)CCOCC3)c2)cc1` (centres unmarked) [Example 50, 4-(3-{[4-(1-methyl-1H-pyrazol-5-yl)phenyl]sulfinyl}phenyl)tetrahydro-2H-pyran-4-carboxamide], testing at 3 mg/kg in test [1] gave an inhibition of 12%. For the same compound, the IC50 in test [2] is ≥ 25000 nM.
